Values quoted from earlier work as cited in US20100183720A1, “Hetero-assembled hydrogels” (The Board of Trustees of the Leland Stanford Junior …, priority 2008, published 2010).

target: model group I polyproline peptide; conditions: monomeric units of WW domain bound to model group I polyproline peptide; read-out: apparent dissociation constant

Kd | Substance
11.2 ± 1.2 µM | Nedd4.3: wild-type WW domain sequence (Protein Data Bank 1I5H), monomeric unit (PLPPGWEERTHTDGRVFFINHNIKKTQWEDPRMQ; Natural WW domain also called Nedd4.3 Kanelis, V., Rotin D. & Forman-Kay, JD (2001) Solution structure of a Nedd4 WW domain-ENaC peptide complex, Nat Struct Biol 8 407-12.)

target: T1, SH3 Domain cSRC (1 SH3 and 1 SH2) (Gallus gallus, UniProt P00523); conditions: read-out: Dissociation constant, Kd
T1 construct: SH3 Domain

Substance | Kd
RKLPPRPSK | 73 µM
PYHPPLPRR | 13 µM

The remaining lines, values ahead:

Kd | Substance
12 µM | RPLPPTPKY
9.6 µM | RELPPIPVF
7.8 µM | RELPPLPRF

target: T2, SH3 Domain (Homo sapiens, UniProt P27986); conditions: read-out: Dissociation constant, Kd
T2 construct: SH3 Domain
T2 sequence (P27986 3-79 limits assumed): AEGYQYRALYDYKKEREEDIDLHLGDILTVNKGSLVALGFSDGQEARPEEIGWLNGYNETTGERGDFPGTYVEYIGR

Substance | Kd
RKLPPRASK | 53 ± 6 µM
RKLPPRPSK | 9.1 ± 0.6 µM
RALPPRPSK | 9.7 ± 0.2 µM
RPLPPRPSK | 9.1 ± 0.6 µM
RKLPARPSK | 16.5 ± 0.1 µM

Continued, values first:

Kd | Substance
12.8 ± 0.6 µM | RKLPPRP
29 ± 2 µM | RKLPPAPSK
98 ± 0.2 µM | AKLPPRPSK
140 ± 10 µM | RKLAPRPSK
37 ± 1 µM | RKAPPRPSK

target: T3, SH3 Domain PI3K (1 SH3 and 2 SH2) (Homo sapiens, UniProt P27986); conditions: read-out: Dissociation constant, Kd
T3 construct: SH3 Domain
T3 sequence (P27986 3-79 limits assumed): as above

Substance | Kd
RKLPPRPAF | 11 µM
RKLPPRPSK | 9.1 µM

Next, values leading:

Kd | Substance
17 µM | RALPPLPRY
13 µM | LNKPPLPKR
13 µM | RYLPPRPMY

target: T4, PABC Domain (Homo sapiens, UniProt P11940); conditions: SPR; read-out: Dissociation constant, Kd (SPR Kd)
T4 construct: PABC Domain
T4 sequence (P11940 542-619 limits assumed): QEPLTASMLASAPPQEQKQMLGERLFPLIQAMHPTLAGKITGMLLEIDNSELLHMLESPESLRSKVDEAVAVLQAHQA

Substance | Kd
AFSRQLNVNAKPFVPNVHAAEFVPSFLR | 1.3 µM
SNLNPNAKEFVPGVKYG | 0.19 µM
VLMSKLSVNAPEFYPSGYSSSY | 2.3 µM

The remaining lines, values ahead:

Kd | Substance
3.1 µM | AKPFVPNVHAAEFVPSFLR
3 µM | LVVKSNLPNAKEFVP
3.9 µM | AFSRQLNVNAKPFVPNVHA
0.16 µM | VVKSNLNPNAKEFVPGVKYGNI
260 µM | LVVKSNLNPNAKEF

target: T5, Human YAP65 (Yes kinase-associated protein) WW Domain (Homo sapiens, UniProt P46937); conditions: read-out: Dissociation constant, Kd (Binding constant)
T5 construct: WW Domain
T5 sequence (P46937 171-204 limits assumed): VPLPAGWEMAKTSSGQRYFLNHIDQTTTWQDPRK

Substance | Kd
GTPPPPYTVG | 52 ± 6 µM
SAPPPYTV | 53 ± 17 µM
SPPPYTV | 47 ± 6 µM

The remaining lines, values ahead:

Kd | Substance
63 ± 17 µM | SPPPAYTV
118 ± 17 µM | SPPPPFTV

target: T6, Human Tsg101 UEV domain (Homo sapiens, UniProt Q99816); conditions: read-out: Dissociation constant, Kd (Binding constant)
T6 construct: Human Tsg101 UEV domain
T6 sequence (Q99816 2-145 limits assumed): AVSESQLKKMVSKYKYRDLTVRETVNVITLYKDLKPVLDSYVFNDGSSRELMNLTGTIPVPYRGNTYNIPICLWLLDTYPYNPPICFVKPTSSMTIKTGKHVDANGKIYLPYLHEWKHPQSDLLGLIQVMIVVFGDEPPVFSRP

Substance | Kd
HIV-1 p6 protein: binding partner of Human Tsg101 UEV domain (LQSRPEPTAPPEESFRSGVETTTPPQKQEPIDKELYPLTSLRSLFGNDPSSQ; p6-gag; UniProt P04591 449-500, looked up) | 27 ± 5 µM
